Experimental data reported in PMC6105673 (Nature Communications, 2018).
Non-standard residues stand in square brackets, D forms with d. *: point of attachment. Biotin = O=C1N[C@H]2[C@H](CS[C@H]2CCCCC(=O)*)N1; Hyp = O=C(O)[C@@H]1C[C@@H](O)CN1

Assays:
[1] = biological target: T1, pVHL-elongin B-elongin C (VBC) complex (Homo sapiens, UniProt P40337+Q15369+Q15370); assay: Biolayer interferometry kinetic analysis of VBC complex binding to biotinylated HIF-2α peptides; conditions: BLItz biolayer interferometry, peptide (523–541) immobilized, purified VBC, global 1:1 model; mean of three experiments ± SEM
T1 construct: a construct encoding N-terminal GST-tagged pVHL19 (54–213); GST (N, cleaved yes); made in house; host or cells: BL21(DE3) E. coli
Description: Absorbance was read at 450 nm. […] The data were analyzed based on a 1:1 binding model using the BLItz Pro software with the fitted curves shown as gray lines. […] Values represent mean of three experiments conducted with independently purified protein ± SEM. * denotes uncharacterized band
Multiple concentrations of purified VBC complex were diluted in kinetics buffer and allowed to associate with immobilized peptide over 120 s. Subsequently, the SA-BLI probe was immersed into kinetics buffer for 120 s to allow for dissociation. The data were analyzed, step corrected, reference corrected, and fit to a global 1:1 binding model. Kd, ka, and kd were calculated using the BLItz Pro software.

[2] = biological target: T1, pVHL-elongin B-elongin C (VBC) complex; assay: Steady-state ELISA of VBC complex binding to immobilized biotinylated HIF-2α peptides; conditions: peptides (523–541) on streptavidin plate; VBC 1, 5 and 25 μg/mL; anti-elongin B antibody; three independent experiments in duplicate
Description: (§1) Fig. 4 Affinity of HIF-2α mutants for pVHL is correlated with disease phenotype. a Biotinylated HIF-2α peptides (523–541) were immobilized on a streptavidin-coated 96-well plate. Binding to various concentrations of pVHL-elongin B-elongin C (VBC) complex was assayed via ELISA with an anti-eloB antibody. Absorbance was read at 450 nm. Values represent mean of three independent experiments performed in duplicate ± SEM. *p < 0.05; **p < 0.01. b Biotinylated HIF-2αOH peptides (523–541) were immobilized on streptavidin- agarose beads and incubated with in vitro transcribed and translated (IVTT) pVHL. Streptavidin beads were pulled down (PD) and levels of HA-tagged pVHL were visualized via immmunoblotting (IB). c, d Biolayer interferometry kinetic analysis of VBC complex binding to biotinylated HIF-2α peptides (523–541). c Biotinylated peptides were coupled to streptavidin- coated biosensors and monitored for binding to VBC complex at the indicated concentrations. The data were analyzed based on a 1:1 binding model using the BLItz Pro software with the fitted curves shown as gray lines. […]
A 96-well streptavidin-coated plate (Quidel) was hydrated with ~200 μL of buffer A per well. […] Following the final wash step, the plates were developed according to manufacturer’s recommendations with ready-to-use TMB1 reagent (Thermo-fisher, Cat. No. 34028) for 20 min before being quenched with 2 N H2SO4. […]

[3] = system: pVHL; assay: In vitro pVHL-HIF-2α binding assay (streptavidin pull-down with IVTT HA-VHL30); conditions: synthetically hydroxylated biotinylated peptides on streptavidin-agarose, IVTT HA-VHL30, 2 h at 4 °C, stringent and mild buffer
Description: as §1
The in vitro pVHL-HIF-2α binding assay was performed according to a previously published protocol. […] Protein levels of HA-VHL30 were determined by western blotting. […]

T1 sequence (P40337 54-213): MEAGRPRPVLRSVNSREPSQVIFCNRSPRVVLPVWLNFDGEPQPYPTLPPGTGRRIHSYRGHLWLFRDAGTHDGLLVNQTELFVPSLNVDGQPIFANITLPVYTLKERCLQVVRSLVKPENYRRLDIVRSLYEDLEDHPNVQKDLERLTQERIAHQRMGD
T1 sequence (Q15370 whole entry partner): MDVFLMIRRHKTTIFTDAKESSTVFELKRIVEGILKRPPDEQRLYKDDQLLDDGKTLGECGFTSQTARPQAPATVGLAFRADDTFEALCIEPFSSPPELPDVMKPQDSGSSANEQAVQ
T1 sequence (Q15369 17-112 partner limits assumed): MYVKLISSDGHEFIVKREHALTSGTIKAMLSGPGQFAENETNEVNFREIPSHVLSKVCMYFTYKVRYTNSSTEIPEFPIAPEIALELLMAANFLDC

| Compound | ka (association rate) [1] | binding to VBC by ELISA (absorbance at 450 nm, in words) [2] | binding of IVTT pVHL in pull-down (immunoblot, in words) [3] |
| --- | --- | --- | --- |
| CC[C@H](C)[C@H](NC(=O)[C@H](Cc1ccc(O)cc1)NC(=O)[C@@H]1C[C@@H](O)CN1C(=O)[C@H](C)NC(=O)[C@@H]1CCCN1C(=O)[C@@H](NC(=O)[C@H](CCC(=O)O)NC(=O)[C@H](CC(C)C)NC(=O)[C@H](CC(=O)O)NC(=O)[C@H](CC(C)C)NC(=O)[C@H](CCC(=O)O)NC(=O)CCCC[C@@H]1SC[C@@H]2NC(=O)N[C@@H]21)[C@@H](C)O)C(=O)N1CCC[C@H]1C(=O)N[C@@H](CCSC)C(=O)N[C@@H](CC(=O)O)C(=O)NCC(=O)N[C@@H](CCC(=O)O)C(=O)N[C@@H](CC(=O)O)C(=O)N[C@@H](Cc1ccccc1)C(=O)N[C@@H](CCC(N)=O)C(N)=O [HIF-2αOH (L529P)] | 4.0 ± 0.4 x10^4 Ms^−1 | does not have a statistically significant effect | – |
| HIF-2αOH L542 peptide: synthetically P531-hydroxylated HIF-2α peptide (523–542), presumably carrying L542P (Biotin-ELDLETLA[Hyp]YIPMDGEDFQP-NH2; SMILES CC[C@H](C)[C@H](NC(=O)[C@H](Cc1ccc(O)cc1)NC(=O)[C@@H]1C[C@@H](O)CN1C(=O)[C@H](C)NC(=O)[C@H](CC(C)C)NC(=O)[C@@H](NC(=O)[C@H](CCC(=O)O)NC(=O)[C@H](CC(C)C)NC(=O)[C@H](CC(=O)O)NC(=O)[C@H](CC(C)C)NC(=O)[C@H](CCC(=O)O)NC(=O)CCCC[C@@H]1SC[C@@H]2NC(=O)N[C@@H]21)[C@@H](C)O)C(=O)N1CCC[C@H]1C(=O)N[C@@H](CCSC)C(=O)N[C@@H](CC(=O)O)C(=O)NCC(=O)N[C@@H](CCC(=O)O)C(=O)N[C@@H](CC(=O)O)C(=O)N[C@@H](Cc1ccccc1)C(=O)N[C@@H](CCC(N)=O)C(=O)N1CCC[C@H]1C(N)=O) | – | – | rescued binding to pVHL |
